Data taken from US20190105367A1, “ANTIMICROBIAL 4-OXOQUINOLIZINES” (Emergent Product Development Gaithersburg Inc., priority 2011, published 2019).

Columns and labels:
[1] = tested on: A. baumannii A329; experiment: MIC without and with sub-inhibitory polymyxin B (Example 4); assay type: cell-based, Acinetobacter baumannii; conditions: A. baumannii A329
[2] = tested on: A. baumannii A473; experiment: as above; assay type: cell-based, Acinetobacter baumannii; conditions: A. baumannii A473
[3] = tested on: A. baumannii A472; experiment: as above; assay type: cell-based, Acinetobacter baumannii; conditions: A. baumannii A472; for MIC: 2nd experiment
[4] = tested on: A. baumannii ATCC 19606; experiment: as above; assay type: cell-based, Acinetobacter baumannii; conditions: A. baumannii ATCC 19606
[5] = tested on: A. baumannii J2; experiment: as above; assay type: cell-based, Acinetobacter baumannii; conditions: A. baumannii J2
[6] = tested on: A. baumannii A387; experiment: Preliminary MBC without and with sub-inhibitory polymyxin B (Example 4); assay type: cell-based, Acinetobacter baumannii; conditions: for MBC: 2nd experiment
[7] = tested on: A. baumannii A489; experiment: MIC without and with sub-inhibitory polymyxin B (Example 4); assay type: cell-based, Acinetobacter baumannii; conditions: A. baumannii A489
[8] = tested on: A. baumannii A14; experiment: as above; assay type: cell-based, Acinetobacter baumannii; conditions: 1st experiment
[9] = tested on: A. baumannii A401; experiment: as above; assay type: cell-based, Acinetobacter baumannii; conditions: A baumannii A 401; for MIC: 2nd experiment
[10] = tested on: A. baumannii NCTC 13301; experiment: as above; assay type: cell-based, Acinetobacter baumannii; conditions: A. baumannii NCTC 13301, 2nd experiment
[11] = tested on: A. baumannii A473; experiment: Preliminary MBC without and with sub-inhibitory polymyxin B (Example 4); assay type: cell-based, Acinetobacter baumannii; conditions: for MBC: 2nd experiment
How it was run: (§1)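 After plating, cultures are held at 37° C for 18-20 hours; the endpoint is then scored by comparing colony growth against the positive control, with MBC defined as the lowest concentration showing roughly 90% reduction.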

[12] = tested on: A. baumannii A14; experiment: as above; assay type: cell-based, Acinetobacter baumannii; conditions: 2nd experiment
How it was run: as §1

[13] = tested on: A. baumannii A390; experiment: as above; assay type: cell-based, Acinetobacter baumannii; conditions: for MBC: 2nd experiment
How it was run: as §1

[14] = tested on: A. baumannii NCTC 13301; experiment: as above; assay type: cell-based, Acinetobacter baumannii; conditions: A. baumannii NCTC 13301, preliminary MBC; for MBC: 2nd experiment
How it was run: as §1

[15] = tested on: A. baumannii A14; experiment: MIC without and with sub-inhibitory polymyxin B (Example 4); assay type: cell-based, Acinetobacter baumannii; conditions: A. baumannii A14, 2nd experiment
[16] = tested on: A. baumannii NCTC 13301; experiment: as above; assay type: cell-based, Acinetobacter baumannii; conditions: A. baumannii NCTC 13301, 1st experiment
[17] = tested on: A. baumannii A390; experiment: as above; assay type: cell-based, Acinetobacter baumannii; conditions: A. baumannii A390
[18] = tested on: A. baumannii J2; experiment: Preliminary MBC without and with sub-inhibitory polymyxin B (Example 4); assay type: cell-based, Acinetobacter baumannii; conditions: A. baumannii J2, preliminary MBC; for MBC: 2nd experiment
[19] = tested on: A. baumannii A472; experiment: as above; assay type: cell-based, Acinetobacter baumannii; conditions: A. baumannii A472, preliminary MBC; for MBC: 2nd experiment
[20] = tested on: A. baumannii A329; experiment: as above; assay type: cell-based, Acinetobacter baumannii; conditions: for MBC: 2nd experiment
[21] = tested on: A. baumannii A387; experiment: MIC without and with sub-inhibitory polymyxin B (Example 4); assay type: cell-based, Acinetobacter baumannii; conditions: A. baumannii A387
[22] = tested on: Acinetobacter sp. (H064200250); experiment: as above; assay type: cell-based
[23] = tested on: A. baumannii A401; experiment: Preliminary MBC without and with sub-inhibitory polymyxin B (Example 4); assay type: cell-based, Acinetobacter baumannii; conditions: for MBC: 2nd experiment
[24] = without polymyxin B, 1st experiment
[25] = +[…] polymyxin B, 1st experiment
[26] = +0.06 μg/ml polymyxin B, 1st experiment
[27] = ratio, PB 0.06 μg/ml, 1st experiment
[28] = Acinetobacter spp. H064200250 (OXA51), +[…] PB, 2nd experiment

Polymyxin B [reference compound]
MIC ([1]; +0.06 μg/ml PB, 2nd experiment): 0.25 µg/mL | MIC without PB/MIC + PB ([1]; +0.06 μg/ml PB, 2nd experiment): 1 | MIC ([1]; without PB, 2nd experiment): 0.25 µg/mL | MIC without PB [1, 24]: 0.5 µg/mL | MIC ([2]; +0.06 μg/ml PB, 2nd experiment): 0.25 µg/mL | MIC without PB/MIC + PB ([2]; +0.06 μg/ml PB, 2nd experiment): 1 | MIC ([2]; without PB, 2nd experiment): 0.25 µg/mL | MIC read with alamar blue ([2]; without PB, value in parentheses, 2nd experiment): 2 µg/mL | MIC without PB [2, 24]: 1 µg/mL | MIC ([3]; +[…] PB): 0.25 µg/mL | MIC +[…] PB [3, 25]: ≤0.125 µg/mL | MIC without PB/MIC + PB ([3]; ratio, PB […], 1st experiment): ≥4 | MIC ([3]; without PB): 0.5 µg/mL | MIC without PB [3, 24]: 0.5 µg/mL | MIC ([4]; +0.06 μg/ml PB, 2nd experiment): 0.25 µg/mL | MIC without PB/MIC + PB ([4]; +0.06 μg/ml PB, 2nd experiment): 2 | MIC +0.06 μg/ml PB [4, 26]: 0.5 µg/mL | MIC without PB/MIC + PB [4, 27]: 1 | MIC ([4]; without PB, 2nd experiment): 0.5 µg/mL | MIC without PB [4, 24]: 0.5 µg/mL | MIC ([5]; +[…] PB, 2nd experiment): ≤0.125 µg/mL | MIC without PB/MIC + PB ([5]; +[…] PB, 2nd experiment): ≥4 | MIC +[…] PB [5, 25]: 0.5 µg/mL | MIC without PB/MIC + PB ([5]; ratio, PB […], 1st experiment): 1 | MIC ([5]; without PB, 2nd experiment): 0.5 µg/mL | MIC without PB [5, 24]: 0.5 µg/mL | MBC ([6]; A. baumannii A387, +0.06 μg/ml PB): 0.25 µg/mL | MBC +0.06 μg/ml PB ([6]; A. baumannii A387, +0.06 μg/ml polymyxin B, 1st experiment): 0.25 µg/mL | MBC ([6]; A. baumannii A387, without PB): 0.25 µg/mL | MBC without PB ([6]; A. baumannii A387, without polymyxin B, 1st experiment): 0.25 µg/mL | MIC ([7]; +[…] PB, 2nd experiment): 0.25 µg/mL | MIC without PB/MIC + PB ([7]; +[…] PB, 2nd experiment): 2 | MIC +[…] PB [7, 25]: 1 µg/mL | MIC without PB/MIC + PB ([7]; ratio, PB […], 1st experiment): 2 | MIC ([7]; without PB, 2nd experiment): 0.5 µg/mL | MIC without PB [7, 24]: 2 µg/mL | MIC +0.06 μg/ml PB ([8]; +0.06 μg/ml polymyxin B): 0.5 µg/mL | MIC without PB/MIC + PB ([8]; ratio, PB 0.06 μg/ml): 1 | MIC without PB ([8]; without polymyxin B): 0.5 µg/mL | MIC ([9]; +0.06 μg/ml PB): 0.25 µg/mL | MIC +0.06 μg/ml PB [9, 26]: 0.5 µg/mL | MIC without PB/MIC + PB [9, 27]: 2 | MIC ([9]; without PB): 0.5 µg/mL | MIC without PB [9, 24]: 1 µg/mL | MIC ([10]; +[…] PB): ≤ 0.125 µg/mL | MIC without PB/MIC + PB ([10]; +[…] PB): ≥2 | MIC ([10]; +[…] PB, value in parentheses marked *, mark not explained): 0.25 µg/mL | MIC ([10]; without PB): 0.25 µg/mL | MBC ([11]; A. baumannii A473, +0.06 μg/ml PB): 0.25 µg/mL | MBC ([11]; A. baumannii A473, without PB): 0.25 µg/mL | MBC without PB ([11]; A. baumannii A473, without polymyxin B, 1st experiment): 1 µg/mL | MBC ([12]; A. baumannii A14, +0.06 μg/ml PB): 0.25 µg/mL | MBC ([12]; A. baumannii A14, without PB): 0.25 µg/mL | MBC ([13]; A. baumannii A390, +0.06 μg/ml PB): ≤0.125 µg/mL | MBC ([13]; A. baumannii A390, without PB): 0.25 µg/mL | MBC without PB ([13]; A. baumannii A390, without polymyxin B, 1st experiment): 0.25 µg/mL | MBC ([14]; +[…] PB): ≤0.125 µg/mL | MBC +[…] PB [14, 25]: 0.5 µg/mL | MBC ([14]; without PB): 0.25 µg/mL | MBC without PB [14, 24]: 0.5 µg/mL | MIC ([15]; +0.06 μg/ml PB): 0.25 µg/mL | MIC without PB/MIC + PB ([15]; +0.06 μg/ml PB): 1 | MIC ([15]; without PB): 0.25 µg/mL | MIC +[…] PB ([16]; +[…] polymyxin B): 1 µg/mL | MIC without PB/MIC + PB ([16]; ratio, PB […]): 0.5 | MIC without PB ([16]; without polymyxin B): 0.5 µg/mL | MIC ([17]; +0.06 μg/ml PB, 2nd experiment): ≤0.125 µg/mL | MIC without PB/MIC + PB ([17]; +0.06 μg/ml PB, 2nd experiment): ≥2 | MIC ([17]; without PB, 2nd experiment): 0.25 µg/mL | MIC without PB [17, 24]: 0.25 µg/mL | MBC ([18]; +[…] PB): ≤0.125 µg/mL | MBC +[…] PB [18, 25]: 0.5 µg/mL | MBC ([18]; without PB): 0.5 µg/mL | MBC without PB [18, 24]: 0.5 µg/mL | MBC ([19]; +[…] PB): 0.25 µg/mL | MBC +[…] PB [19, 25]: ≤0.125 µg/mL | MBC ([19]; without PB): 0.5 µg/mL | MBC without PB [19, 24]: 0.5 µg/mL | MBC ([20]; A. baumannii A329, +0.06 μg/ml PB): 0.25 µg/mL | MBC ([20]; A. baumannii A329, without PB): 0.25 µg/mL | MBC without PB ([20]; A. baumannii A329, without polymyxin B, 1st experiment): 0.5 µg/mL | MIC ([21]; +0.06 μg/ml PB, 2nd experiment): ≤ 0.125 µg/mL | MIC without PB/MIC + PB ([21]; +0.06 μg/ml PB, 2nd experiment): ≥2 | MIC read with alamar blue ([21]; +0.06 μg/ml PB, value in parentheses, 2nd experiment): 0.25 µg/mL | MIC +0.06 μg/ml PB [21, 26]: 0.25 µg/mL | MIC without PB/MIC + PB [21, 27]: 1 | MIC ([21]; without PB, 2nd experiment): 0.25 µg/mL | MIC without PB [21, 24]: 0.25 µg/mL | MIC [22, 28]: 0.25 µg/mL | MIC without PB/MIC + PB [22, 28]: 1 | MIC ([22]; Acinetobacter spp. H064200250 (OXA51), without PB, 2nd experiment): 0.25 µg/mL | MIC +[…] PB ([22]; Acinetobacter spp. H064200250, +[…] polymyxin B, 1st experiment): 0.25 µg/mL | MIC without PB/MIC + PB ([22]; Acinetobacter spp. H064200250, ratio, PB […], 1st experiment): 2 | MIC without PB ([22]; Acinetobacter spp. H064200250, without polymyxin B, 1st experiment): 0.5 µg/mL | MBC ([23]; A baumannii A 401, +0.06 μg/ml PB): 0.25 µg/mL | MBC +0.06 μg/ml PB ([23]; A baumannii A 401, +0.06 μg/ml polymyxin B, 1st experiment): 0.5 µg/mL | MBC ([23]; A baumannii A 401, without PB): 0.5 µg/mL | MBC without PB ([23]; A baumannii A 401, without polymyxin B, 1st experiment): 1 µg/mL
